Experimental data published in patent publication US10316057B2, “Tandem facial amphiphiles” (WISCONSIN ALUMNI RESEARCH FOUNDATION, priority 2011, dated 2019).
Where a name gives a salt, the structure may show the parent alone.

Tests used:
[1] = Critical micelle concentration by solubilization of a hydrophobic fluorescent dye; assay type: physicochemical
Description: The “Critical Micelle Concentration” (CMC) refers to the concentration of a detergent (e.g., an amphiphile as described herein) in an aqueous solution at which the detergent molecules self-assemble into micelles. Below the CMC, detergents are mostly monomeric; above the CMC, micelle concentration increases linearly with detergent concentration. The CMC is dependent upon many factors and is detergent-specific. The CMC of a detergent can be determined experimentally by measuring the solubilization of a water-insoluble dye or fluorophore while varying the concentration of detergent. A CMC may also be determined by measuring the diminution of the surface tension of an aqueous solution as a function of detergent concentration (CMCs determined by either method correlate with each other). The CMC is determined by extrapolating the plot of solubilization vs. concentration (or surface tension vs. concentration) in the two linear regions above and below the CMC. Where the two lines intersect is the CMC. The CMC can also be determined by the method of Nugebauer, J. M. (1990), Methods in Enzymology, 182:239-253.
(§1) TFA-0 forms a hydrogel at concentrations >0.4 wt %, and this compound was not studied further. The other three TFAs are soluble to 5-10 wt % in aqueous media. Critical micelle concentrations (CMC) were determined by monitoring solubilization of a hydrophobic fluorescent dye, […] (Chattopadhyay et al., Anal. Biochem. 1984, 139, 408-412), and the hydrodynamic radii (Rh) of the micelles were determined via dynamic light scattering (DLS). Table 1 compares the data for TFAs with those for DDM, a conventional detergent that is very widely used for MP applications; DDM and the TFAs share maltose as their hydrophilic moieties. CMC values of the three TFAs are smaller than that of DDM, whether CMC is measured in units of mM or wt %.
Analysis of these TFAs for their CMC values provided the data in Table 3.

[2] = Hydrodynamic radii of micelles by dynamic light scattering (DLS); assay type: physicochemical; conditions: 0.5 wt % amphiphile in water, 25° C.; mean ± SD, n = 3
Experimental: as §1
Each TFA and DDM was dissolved in distilled, deionized (DI) water to obtain 1 mL of a solution containing 0.5 wt % amphiphile. Each solution was filtered through a 0.02 μm filter for DLS measurements. A 100-mW, 532-nm laser (Compass 315M-100, Coherent, Santa Clara, Calif.) illuminated a temperature-controlled glass cell at 25° C. that was filled with a refractive-index matching fluid (decahydronaphthalene, Fisher Scientific, Pittsburgh, Pa.). The scattered light was collected at an angle of 90° for about 30 minutes. Rh values were determined using the integrated dynamics software that analyzes the time scale of the scattered light intensity fluctuations by an autocorrelation function. The autocorrelation functions (ACFs) were obtained using a BI-9000AT digital autocorrelator (Brookhaven Instruments, Holtsville, N.Y.). Measurements were repeated three times.

| Structure (SMILES) | CMC ([1]; Example 4, Table 3) | CMC (wt. %) ([1]; Example 4, Table 3) | CMC ([1]; mean ± SD, n = 3) | CMC (wt %) ([1]; mean ± SD, n = 3) | Rh (nm), hydrodynamic radius of micelles measured by dynamic light scattering [2] |
| --- | --- | --- | --- | --- | --- |
| CCCCCN(CCCN(CCCCC)C(=O)CCC(C)C1CCC2C3CCC4CC(OC5OC(CO)C(OC6OC(CO)C(O)C(O)C6O)C(O)C5O)CCC4(C)C3CC(OC3OC(CO)C(OC4OC(CO)C(O)C(O)C4O)C(O)C3O)C12C)C(=O)CCC(C)C1CCC2C3CCC4CC(OC5OC(CO)C(OC6OC(CO)C(O)C(O)C6O)C(O)C5O)CCC4(C)C3CC(OC3OC(CO)C(OC4OC(CO)C(O)C(O)C4O)C(O)C3O)C12C (centres unmarked) [TFA-10a] | 0.004 mM | 0.0009 wt. % | – | – | – |
| CCN(CCCN(CC)C(=O)CCC(C)C1CCC2C3CCC4CC(OC5OC(CO)C(OC6OC(CO)C(O)C(O)C6O)C(O)C5O)CCC4(C)C3CC(OC3OC(CO)C(OC4OC(CO)C(O)C(O)C4O)C(O)C3O)C12C)C(=O)CCC(C)C1CCC2C3CCC4CC(OC5OC(CO)C(OC6OC(CO)C(O)C(O)C6O)C(O)C5O)CCC4(C)C3CC(OC3OC(CO)C(OC4OC(CO)C(O)C(O)C4O)C(O)C3O)C12C (centres unmarked) [TFA-7a] | 0.013 mM | 0.0028 wt. % | – | – | – |
| CCN(CCCN(CC)C(=O)CC[C@@H](C)[C@H]1CC[C@H]2[C@@H]3CC[C@@H]4C[C@H](O[C@@H]5O[C@H](CO)[C@@H](O[C@H]6O[C@H](CO)[C@@H](O)[C@H](O)[C@H]6O)[C@H](O)[C@H]5O)CC[C@]4(C)[C@H]3C[C@H](O[C@@H]3O[C@H](CO)[C@@H](O[C@H]4O[C@H](CO)[C@@H](O)[C@H](O)[C@H]4O)[C@H](O)[C@H]3O)[C@]12C)C(=O)CC[C@@H](C)[C@H]1CC[C@H]2[C@@H]3CC[C@@H]4C[C@H](O[C@@H]5O[C@H](CO)[C@@H](O[C@H]6O[C@H](CO)[C@@H](O)[C@H](O)[C@H]6O)[C@H](O)[C@H]5O)CC[C@]4(C)[C@H]3C[C@H](O[C@@H]3O[C@H](CO)[C@@H](O[C@H]4O[C@H](CO)[C@@H](O)[C@H](O)[C@H]4O)[C@H](O)[C@H]3O)[C@]12C [TFA-2] | – | – | 0.013 ± 0.0018 mM | 0.0028 ± 0.00039 wt % | 2.0 ± 0.03 nm |
| CC(CCC(=O)N(C)CCCN(C)C(=O)CCC(C)C1CCC2C3CCC4CC(OC5OC(CO)C(OC6OC(CO)C(O)C(O)C6O)C(O)C5O)CCC4(C)C3CC(OC3OC(CO)C(OC4OC(CO)C(O)C(O)C4O)C(O)C3O)C12C)C1CCC2C3CCC4CC(OC5OC(CO)C(OC6OC(CO)C(O)C(O)C6O)C(O)C5O)CCC4(C)C3CC(OC3OC(CO)C(OC4OC(CO)C(O)C(O)C4O)C(O)C3O)C12C (centres unmarked) [TFA-4a] | 0.014 mM | 0.0030 wt. % | – | – | – |
| CCCCN(CCCN(CCCC)C(=O)CCC(C)C1CCC2C3CCC4CC(OC5OC(CO)C(OC6OC(CO)C(O)C(O)C6O)C(O)C5O)CCC4(C)C3CC(OC3OC(CO)C(OC4OC(CO)C(O)C(O)C4O)C(O)C3O)C12C)C(=O)CCC(C)C1CCC2C3CCC4CC(OC5OC(CO)C(OC6OC(CO)C(O)C(O)C6O)C(O)C5O)CCC4(C)C3CC(OC3OC(CO)C(OC4OC(CO)C(O)C(O)C4O)C(O)C3O)C12C (centres unmarked) [TFA-9a] | 0.01 mM | 0.0022 wt. % | – | – | – |
